Test results: ChEMBL document CHEMBL1201862, “PubChem BioAssay data set” (2004)
The source made the active and inactive calls.

Legend:
[1] = target: Beta-2 adrenergic receptor (Homo sapiens, UniProt P07550); test: beta2AR agonists driving receptor internalization, dose response, cell-based, FAP fluorogen, flow cytometry, cherry pick 1 (AID 588763); type: functional
Tumor necrosis factor = Tumor necrosis factor (Homo sapiens, UniProt P01375); test: TNFa-triggered NF-kB activation inhibitors, SAR follow-up, cell-based, revised (AID 2337); type: functional
[2] = target: T1, Nucleotide-binding oligomerization domain-containing protein 1 (Homo sapiens, UniProt Q9Y239); test: NOD1 signaling inhibitors, SAR follow-up, revised (AID 2333); type: functional
T1 sequence (Q9Y239 whole entry): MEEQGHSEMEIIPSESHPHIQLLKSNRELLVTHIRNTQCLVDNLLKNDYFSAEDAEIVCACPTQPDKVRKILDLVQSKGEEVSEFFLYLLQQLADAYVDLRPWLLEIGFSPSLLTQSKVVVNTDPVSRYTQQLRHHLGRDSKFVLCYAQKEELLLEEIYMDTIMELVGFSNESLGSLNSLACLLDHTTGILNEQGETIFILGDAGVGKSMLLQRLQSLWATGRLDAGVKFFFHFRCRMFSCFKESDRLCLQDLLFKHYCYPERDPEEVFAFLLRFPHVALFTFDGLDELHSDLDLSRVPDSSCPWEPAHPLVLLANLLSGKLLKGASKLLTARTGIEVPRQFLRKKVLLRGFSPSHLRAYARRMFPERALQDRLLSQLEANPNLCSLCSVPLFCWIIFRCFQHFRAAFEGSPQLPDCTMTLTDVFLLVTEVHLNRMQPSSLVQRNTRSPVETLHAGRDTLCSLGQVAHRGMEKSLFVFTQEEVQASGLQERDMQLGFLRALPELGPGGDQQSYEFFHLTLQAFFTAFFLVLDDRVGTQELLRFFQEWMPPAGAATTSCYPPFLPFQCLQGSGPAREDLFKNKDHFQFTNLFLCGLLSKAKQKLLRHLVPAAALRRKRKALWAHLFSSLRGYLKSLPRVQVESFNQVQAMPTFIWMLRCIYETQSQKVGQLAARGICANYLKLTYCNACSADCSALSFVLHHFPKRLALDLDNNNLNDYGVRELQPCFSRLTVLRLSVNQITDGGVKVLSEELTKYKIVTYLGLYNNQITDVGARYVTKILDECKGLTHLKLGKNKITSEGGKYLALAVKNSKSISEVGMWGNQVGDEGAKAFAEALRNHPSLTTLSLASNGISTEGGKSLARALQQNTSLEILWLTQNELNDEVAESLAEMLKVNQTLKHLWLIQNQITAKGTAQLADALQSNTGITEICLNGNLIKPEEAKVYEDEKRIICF

HEK293 = test: cells; details: Homo sapiens
[3] = target: T2, Short transient receptor potential channel 4 (Mus musculus, UniProt Q9QUQ5); test: mouse TRPC4 channel inhibitors, dose response, cell-based, HEK293 TRPC4/mu-opioid, Fluo-4 calcium (AID 434942); type: functional;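 further: potency of inhibitors blocking the TRPC4 calcium response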
T2 sequence (Q9QUQ5 whole entry): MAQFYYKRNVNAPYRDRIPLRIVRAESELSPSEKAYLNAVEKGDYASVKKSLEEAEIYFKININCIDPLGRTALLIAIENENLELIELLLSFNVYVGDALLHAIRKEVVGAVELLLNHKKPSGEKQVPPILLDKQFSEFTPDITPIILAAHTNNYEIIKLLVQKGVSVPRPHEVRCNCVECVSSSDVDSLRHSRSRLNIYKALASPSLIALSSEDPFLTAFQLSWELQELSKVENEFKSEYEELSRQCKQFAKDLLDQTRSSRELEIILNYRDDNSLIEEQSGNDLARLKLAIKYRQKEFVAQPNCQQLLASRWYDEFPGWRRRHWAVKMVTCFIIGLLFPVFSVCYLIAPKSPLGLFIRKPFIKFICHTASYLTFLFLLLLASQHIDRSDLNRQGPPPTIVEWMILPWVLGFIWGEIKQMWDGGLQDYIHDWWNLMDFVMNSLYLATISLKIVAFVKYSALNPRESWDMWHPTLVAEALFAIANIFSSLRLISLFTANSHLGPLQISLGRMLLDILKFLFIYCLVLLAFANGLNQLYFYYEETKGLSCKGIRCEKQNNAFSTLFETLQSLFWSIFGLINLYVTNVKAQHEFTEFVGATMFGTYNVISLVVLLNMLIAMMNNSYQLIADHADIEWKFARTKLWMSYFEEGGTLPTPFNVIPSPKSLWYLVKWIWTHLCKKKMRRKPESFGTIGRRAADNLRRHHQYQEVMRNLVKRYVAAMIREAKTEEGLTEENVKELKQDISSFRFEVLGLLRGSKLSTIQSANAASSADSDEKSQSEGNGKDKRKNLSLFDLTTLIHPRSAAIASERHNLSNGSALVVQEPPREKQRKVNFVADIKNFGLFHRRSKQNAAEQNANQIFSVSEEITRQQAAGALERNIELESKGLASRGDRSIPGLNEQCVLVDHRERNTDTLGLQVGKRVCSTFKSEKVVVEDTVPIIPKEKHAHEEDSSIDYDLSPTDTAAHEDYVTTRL

BJ [4] = test: cytotoxicity toward BJ-TERT fibroblasts, dose response, cell-based, RAS-independent, luminescence (AID 1933); type: functional; details: Homo sapiens
BJ [5] = test: cells; type: functional, cell-based; details: Homo sapiens
BJ [6] = test: cytotoxicity toward BJ-TERT-LT-ST fibroblasts, dose response, cell-based, RAS-independent, luminescence (AID 1935); type: functional; details: Homo sapiens;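 further: BJ fibroblasts immortalized with TERT plus LT and ST oncogenes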
[7] = cytotoxicity toward DRD oncogenic fibroblasts, dose response, cell-based, non-viral oncogenic, luminescence (AID 1934); type: functional; details: Homo sapiens
Nonstructural protein 1 = Nonstructural protein 1 (Influenza A virus, UniProt Q194T2); type: functional, Influenza A virus (A/California/07/2009(H1N1))
[8] = target: T3, Apoptotic protease-activating factor 1 (Homo sapiens, UniProt O14727); type: functional
T3 sequence (O14727 whole entry): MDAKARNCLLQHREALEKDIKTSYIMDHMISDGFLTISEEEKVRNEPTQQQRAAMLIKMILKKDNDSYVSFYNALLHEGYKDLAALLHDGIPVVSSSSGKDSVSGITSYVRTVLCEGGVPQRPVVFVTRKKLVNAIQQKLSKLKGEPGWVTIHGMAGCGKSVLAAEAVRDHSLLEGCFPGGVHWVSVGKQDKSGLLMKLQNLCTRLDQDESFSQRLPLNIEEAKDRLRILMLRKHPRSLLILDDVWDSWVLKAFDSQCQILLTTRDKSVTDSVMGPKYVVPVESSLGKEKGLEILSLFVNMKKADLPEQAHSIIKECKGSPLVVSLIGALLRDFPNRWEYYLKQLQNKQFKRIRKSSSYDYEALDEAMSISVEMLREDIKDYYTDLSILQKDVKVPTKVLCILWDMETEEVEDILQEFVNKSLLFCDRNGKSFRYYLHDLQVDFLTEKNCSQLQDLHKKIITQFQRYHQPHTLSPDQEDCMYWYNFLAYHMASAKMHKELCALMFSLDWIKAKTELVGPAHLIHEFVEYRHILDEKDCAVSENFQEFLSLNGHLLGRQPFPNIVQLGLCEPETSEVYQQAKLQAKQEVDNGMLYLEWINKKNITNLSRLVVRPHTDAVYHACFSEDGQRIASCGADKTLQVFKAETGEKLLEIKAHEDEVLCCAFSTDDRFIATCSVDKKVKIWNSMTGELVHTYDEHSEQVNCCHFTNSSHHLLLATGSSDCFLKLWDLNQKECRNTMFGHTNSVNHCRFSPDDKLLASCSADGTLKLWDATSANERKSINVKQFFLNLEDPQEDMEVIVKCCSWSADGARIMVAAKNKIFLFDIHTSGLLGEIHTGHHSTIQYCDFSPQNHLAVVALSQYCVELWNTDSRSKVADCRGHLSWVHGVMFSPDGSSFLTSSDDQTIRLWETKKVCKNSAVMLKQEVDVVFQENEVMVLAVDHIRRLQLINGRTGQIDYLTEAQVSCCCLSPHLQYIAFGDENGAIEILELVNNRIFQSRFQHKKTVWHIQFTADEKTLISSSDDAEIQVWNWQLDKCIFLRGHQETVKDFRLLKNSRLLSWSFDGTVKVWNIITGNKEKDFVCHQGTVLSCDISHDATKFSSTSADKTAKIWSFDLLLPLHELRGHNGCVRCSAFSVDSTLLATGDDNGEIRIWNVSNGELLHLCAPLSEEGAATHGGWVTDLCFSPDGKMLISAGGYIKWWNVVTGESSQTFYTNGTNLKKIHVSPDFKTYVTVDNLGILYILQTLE

[9] = test system: Streptococcus sp. 'group A'; test: growth inhibition of control SK(-) GAS strain, dose response, counter-screen for streptokinase expression inhibitor project, luminescence, kanamycin, BacTiterGlo, confirmation (AID 1900); type: functional, organism-based
Streptokinase A = target: T4, Streptokinase A (Streptococcus pyogenes serotype M1, UniProt P10520); test: S. pyogenes streptokinase expression inhibitors, potency, dose response, plasminogen activation absorbance, OD405 (AID 1914); type: functional, Streptococcus pyogenes M1 GAS;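 further: secreted streptokinase activity via plasminogen activation per viability signal from cell pellet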
T4 sequence (P10520 whole entry): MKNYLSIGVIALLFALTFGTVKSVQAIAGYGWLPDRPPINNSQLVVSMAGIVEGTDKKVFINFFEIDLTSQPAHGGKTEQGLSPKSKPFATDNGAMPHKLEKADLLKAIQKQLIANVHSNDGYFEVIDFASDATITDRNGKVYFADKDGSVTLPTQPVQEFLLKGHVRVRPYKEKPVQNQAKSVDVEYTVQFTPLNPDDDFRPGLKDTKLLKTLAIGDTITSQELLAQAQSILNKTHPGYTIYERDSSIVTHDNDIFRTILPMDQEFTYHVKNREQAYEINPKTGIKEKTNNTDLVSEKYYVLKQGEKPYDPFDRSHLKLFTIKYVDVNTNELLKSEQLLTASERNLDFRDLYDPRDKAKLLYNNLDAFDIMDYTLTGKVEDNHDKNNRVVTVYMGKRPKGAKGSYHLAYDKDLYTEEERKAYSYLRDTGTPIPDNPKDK

Streptococcus = test: Group A Streptococcus viability loss, dose response, counter-screen for streptokinase expression inhibitor project, luminescence, BacTiterGlo (AID 1915); type: functional, organism-based;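 further: potency for reduction of bacterial viability or growth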
[10] = target: T5, Microphthalmia-associated transcription factor (Homo sapiens, UniProt O75030); test: TRPM1 promoter luciferase signal decrease, dose response, MITF inhibitor project, cell-based, SK-MEL-5, cherry-picked, set 3 (AID 493073); type: functional
T5 sequence (O75030 whole entry): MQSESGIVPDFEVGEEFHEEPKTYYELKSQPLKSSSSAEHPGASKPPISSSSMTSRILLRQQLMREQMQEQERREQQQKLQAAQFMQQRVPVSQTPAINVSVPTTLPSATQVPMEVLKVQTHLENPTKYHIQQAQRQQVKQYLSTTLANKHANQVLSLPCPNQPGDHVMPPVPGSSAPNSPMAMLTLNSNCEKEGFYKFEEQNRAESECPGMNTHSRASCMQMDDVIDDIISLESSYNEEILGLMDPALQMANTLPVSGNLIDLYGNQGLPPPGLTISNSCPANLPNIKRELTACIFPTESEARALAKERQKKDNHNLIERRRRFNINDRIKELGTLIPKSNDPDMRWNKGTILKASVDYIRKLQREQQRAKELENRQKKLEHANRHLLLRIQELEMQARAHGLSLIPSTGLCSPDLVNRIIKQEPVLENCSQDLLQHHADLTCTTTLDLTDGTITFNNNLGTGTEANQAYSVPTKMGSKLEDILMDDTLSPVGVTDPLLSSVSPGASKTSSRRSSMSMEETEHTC

INS1 = test: beta cell apoptosis inhibitors, cytokine rescue, dose response, luminescence, retest (AID 449756); type: functional, cell-based; details: Rattus norvegicus;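 further: cell death triggered by IL-1 beta plus TNF-alpha plus IFN-gamma mixture; protective hits raise ATP signal compared with cytokine alone wells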

Tumor necrosis factor, sequence (P01375 whole entry, the tested form may be a part): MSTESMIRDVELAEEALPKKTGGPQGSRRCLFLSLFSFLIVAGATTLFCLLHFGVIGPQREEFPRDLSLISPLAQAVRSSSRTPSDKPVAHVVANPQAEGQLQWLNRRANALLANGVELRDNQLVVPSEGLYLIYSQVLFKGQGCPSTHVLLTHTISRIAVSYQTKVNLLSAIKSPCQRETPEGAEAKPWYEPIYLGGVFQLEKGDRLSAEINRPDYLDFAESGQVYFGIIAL
Beta-2 adrenergic receptor, sequence (P07550 whole entry): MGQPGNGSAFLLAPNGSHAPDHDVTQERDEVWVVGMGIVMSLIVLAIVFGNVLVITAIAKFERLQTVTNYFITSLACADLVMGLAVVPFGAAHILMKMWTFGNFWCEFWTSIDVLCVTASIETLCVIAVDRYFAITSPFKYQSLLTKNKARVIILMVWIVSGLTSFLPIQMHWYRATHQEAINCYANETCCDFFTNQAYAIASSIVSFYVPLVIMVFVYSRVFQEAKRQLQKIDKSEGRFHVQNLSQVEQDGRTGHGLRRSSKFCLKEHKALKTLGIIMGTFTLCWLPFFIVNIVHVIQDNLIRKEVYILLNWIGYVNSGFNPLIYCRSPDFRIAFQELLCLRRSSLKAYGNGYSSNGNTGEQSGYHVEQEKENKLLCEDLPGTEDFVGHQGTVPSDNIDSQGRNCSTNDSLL
Nonstructural protein 1, sequence (Q194T2 whole entry): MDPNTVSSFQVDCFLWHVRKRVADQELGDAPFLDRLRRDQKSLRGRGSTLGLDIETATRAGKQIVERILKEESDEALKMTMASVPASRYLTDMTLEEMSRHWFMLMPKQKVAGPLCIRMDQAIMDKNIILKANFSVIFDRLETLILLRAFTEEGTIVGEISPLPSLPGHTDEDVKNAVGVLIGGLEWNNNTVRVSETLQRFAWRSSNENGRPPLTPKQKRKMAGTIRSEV

## CCC(=O)Nc1ccc(-c2nn3c(C)nnc3s2)cc1C
[1]
  EC50: 3.12 µM (active)

## COc1ccc(NC(=O)c2ccc(CN3CCCCC3)cc2)cc1
Tumor necrosis factor
  IC50: > 20 µM (inactive)
[2]
  IC50: > 20 µM (inactive)
HEK293
  IC50: > 20 µM (inactive)

## CC(C)(c1ccccc1)c1ccc(OCCCNCCO)cc1
[3]
  EC50: 4.22 µM (active)

## Clc1ccc(CN2C3=NCCN3c3ccccc32)cc1Cl
[3]
  EC50: 1.19 µM (active)

## O=C(CN1CCCCC1)N1c2ccccc2Oc2ccccc21
[3]
  EC50: 6.68 µM (active)

## O=C(Nc1ccc(S(=O)(=O)N2CCCCC2)cc1)c1ccc(CN2CCc3ccccc3C2)cc1
BJ [4]
  EC50: 23.9 µM (active)
BJ [5]
  EC50: 51.8 µM (active)
BJ [6]
  EC50: > 150 µM (not active)
[7]
  EC50: 22 µM (active)
Tumor necrosis factor
  IC50: 0.616 µM (active)
[2]
  IC50: 0.432 µM (active)
HEK293
  IC50: 19.5 µM (active)

## COCCn1c(SCc2cc(C(C)=O)ccc2OC)nc2cc(Cl)ccc2c1=O
[3]
  EC50: 3.35 µM (active)

## O=C1C(NS(=O)(=O)c2ccc(Cl)cc2)=C(N2CCCCC2)C(=O)c2ccccc21
Nonstructural protein 1
  IC50: 11.4 µM (active)
[8]
  IC50: 30.5 µM (active)

## CCCCCn1cc[n+](C2=C([N-]S(=O)(=O)c3ccccc3)C(=O)c3ccccc3C2=O)c1
[9]
  EC50: 1.15 µM (active)
Streptokinase A
  EC50: 3.69 µM (active)
Streptococcus
  EC50: 13.3 µM (active)
[10]
  AC50: 5.9 µM (active)
[8]
  IC50: 13.8 µM (active)
INS1
  AC50: 4.7 µM (active)

## CCc1ccc(CNC(=O)c2ccc(NC(=O)C3=CSCCO3)cc2)cc1
[1]
  EC50: 0.0949 µM (active)

## CC1(C)CC2CC(C)(CN2C(=O)c2cc(-c3ccc(O)cc3)on2)C1 (stereo not given)
[3]
  EC50: 5.31 µM (active)
